These results are taken from patent publication US10399950B2, “Substituted amino azoles as plant growth regulators” (SYNGENTA PARTICIPATIONS AG, priority 2013, dated 2019).

Where only a bound is given, the exact number is not on record here.

In data set [1] the test system is Wheat (Triticum aestivum) seeds of the variety Arina. The data set can be described thus: Wheat assay: plant (root and shoot) area and curliness of the roots. It is filed as in vivo. To be noted: seeds in pouches with 10 mL compound solution; scanned twelve days after sowing/application. Here is the method:
Two bioassays were developed in order to assay the activity of the compounds of the present invention. In the first assay, the activity of the compound was quantified in beans based on its effect on the elongation of the petiole of the second leaf. In the second assay, the compound's effect on the root growth of wheat was determined. The test compounds were dissolved in small volumes of dimethyl sulfoxide and diluted to the appropriate concentration with water. Wheat (Triticum aestivum) seeds of the variety Arina were sown in pouches (14.7×13.2 cm) containing 10 mL of the appropriate compound solution. The pouches were stored at 17° C. for three days to enable the seeds to germinate. Plants were then stored at 5° C. Twelve days after sowing/application, plants were removed from the pouches and scanned. The effect of the compounds was quantified by determining plant (root and shoot) area and curliness of the roots (curliness is an indicator of brassinosteroid-type activity).

Data set [2] concerns the target T1, Arabidopsis BIN2 kinase (Uniprot Q39011), His6-BIN2 (Arabidopsis thaliana, UniProt Q39011).
T1 construct: made in house; host or cells: E. coli BL21
T1 sequence (Q39011 1-380): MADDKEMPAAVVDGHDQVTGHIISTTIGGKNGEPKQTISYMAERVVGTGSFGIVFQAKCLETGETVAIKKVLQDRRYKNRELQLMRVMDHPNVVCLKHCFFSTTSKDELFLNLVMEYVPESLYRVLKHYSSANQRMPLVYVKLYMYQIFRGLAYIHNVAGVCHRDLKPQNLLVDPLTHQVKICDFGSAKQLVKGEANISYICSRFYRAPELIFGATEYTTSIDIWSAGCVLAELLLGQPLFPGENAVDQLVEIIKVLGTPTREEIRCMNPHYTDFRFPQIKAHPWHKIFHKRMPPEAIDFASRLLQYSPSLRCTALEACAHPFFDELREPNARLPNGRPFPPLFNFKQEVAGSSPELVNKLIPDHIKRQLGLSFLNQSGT
The data set can be described thus: In vitro assay for inhibition of plant GSK3/shaggy-like kinase activity (ADP-Glo). The format is biochemical. As to conditions: compounds at 5 μM; 5 μM ATP; myelin basic protein substrate; 1 h at 20° C.; triplicate; read-out: inhibition of the activity of His6-BIN2 relative to the solvent vehicle control. Here is the method: Arabidopsis BIN2 kinase (Uniprot Q39011) was produced in E. coli BL21 as an N-terminal hexahistidine fusion protein. In vitro kinase assays were performed by incubating 50 ng His6-BIN2 protein with 5 μg myelin basic protein (Sigma-Aldrich) as substrate and 5 μM ATP as co-substrate in reaction buffer consisting of 40 mM Tris-HCl, 20 mM MgCl2 and 0.1 mg/mL bovine serum albumin in a final reaction volume of 50 μl. Enzyme activity was assessed in the absence and presence of compounds (described in Tables A and B) at 5 μM by measuring the level of ADP produced after incubation for 1 h at 20° C. using an enzyme-coupled bioluminescent assay (ADP-Glo, Promega Corp.). The experiment was performed in triplicate and principaly on the acid form (as it the active A1).

Turning to `COC(=O)CCC(=O)Nc1ncc(C#N)s1` [A1, Methyl 4-[(5-cyanothiazol-2-yl)amino]-4-oxo-butanoate], the melting point (in general, the temperature, or range, at which the solid turns liquid) lay within 118 to 119 °C. The “curliness of the roots (indicator of brassinosteroid-type activity)” value in data set [1] is “curly root phenotype”.

Regarding `N#Cc1cnc(NC(=O)CCC(=O)O)s1` [A5, 4-[(5-cyanothiazol-2-yl)amino]-4-oxo-butanoic acid], the “curliness of the roots (indicator of brassinosteroid-type activity)” value in data set [1] is on record as “curly root phenotype”. In addition, the inhibition (usually the drop in the measured response relative to a control, in per cent) at 5 µM in data set [2] is no less than 20%.
